Experiment [1] concerns the target IL-17A(FLAG-Tagged): IL-17RA(His-Tagged) (Homo sapiens, UniProt Q16552, K93Q). The experiment is described as follows: IL-17A(FLAG-Tagged): IL-17RA(His-Tagged) Binding Disruption Eu-HTRF Assay. As to conditions: IL-17A/IL-17RA binding disruption, simple average if tested more than once. The essentials: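 IC50 comes from a one-site competition fit of the HTRF 665/620 nm ratio. Compound dilutions (2-fold, 22 points) were held 1 h rt with FLAG-tagged IL-17A dimer, then His-tagged IL-17RA plus Eu-cryptate anti-FLAG and D2 anti-His antibodies were added for 2 h rt.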
In general terms: TR-FRET usually uses a lanthanide donor and a delayed reading to cut background.

Experiment [2] has as its system IL-17A-induced G-CSF production in human normal keratinocyte (NHK). Kind of experiment: NHK Assay: IL-17A-induced G-CSF production in human normal keratinocytes. Format: cell-based. As to conditions: Homo sapiens, Keratinocyte, 24 h, adult normal human keratinocytes, IL-17A 5 ng/mL, simple average if tested more than once. The essentials:
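IL-17A (5 ng/mL final) was pre-incubated 1 h at rt with titrated compound and then added to adult normal human keratinocytes (5% FBS, 0.2% DMSO) for 24 h at 37° C. Supernatant G-CSF was measured by HTRF against a standard curve to derive IC50. Viability was checked by CellTiter-Glo.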

What is called IC50 is the point on the concentration scale where inhibition reaches its midpoint. Lower therefore signals greater potency in that assay.

Chain of UniProt Q16552 (Q16552 with tags, fused parts or gaps K93Q): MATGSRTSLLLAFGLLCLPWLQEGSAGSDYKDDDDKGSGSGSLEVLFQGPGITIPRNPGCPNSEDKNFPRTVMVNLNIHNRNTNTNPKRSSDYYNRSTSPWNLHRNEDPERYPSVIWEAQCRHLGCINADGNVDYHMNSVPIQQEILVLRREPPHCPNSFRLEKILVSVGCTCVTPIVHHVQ

With `CC(F)(F)Cn1ncnc1C(=O)N[C@H](c1cn2ncc([C@H](NC(=O)CCC(F)(F)F)C3CC3)cc2n1)C1CCC(F)(F)CC1` [Example 477, N—((S)-(7-((R)-Cyclopropyl(4,4,4-trifluorobutanamido)methyl)imidazo[1,2-b]pyridazin-2-yl)(4,4-difluorocyclohexyl)methyl)-1-(2,2-difluoropropyl)-1H-1,2,4-triazole-5-carboxamide], the figures for the IC50 in experiment [1] and in experiment [2] were 290 nM and 1400 nM, respectively.

On to `C[C@@H](n1ncnc1C(=O)N[C@H](c1cn2ncc([C@H](NC(=O)CCC(F)(F)F)C3CC3)cc2n1)C1CCC(F)(F)CC1)C(F)(F)F` [Example 478, N—((S)-(7-((R)-Cyclopropyl(4,4,4-trifluorobutanamido)methyl)imidazo[1,2-b]pyridazin-2-yl)(4,4-difluorocyclohexyl)methyl)-1-((R)-1,1,1-trifluoropropan-2-yl)-1H-1,2,4-triazole-5-carboxamide], for which the figures for the IC50 in experiment [1] and in experiment [2] were 450 nM and 850 nM, respectively.

As for `CC(C(F)F)n1ncnc1C(=O)N[C@H](c1cn2ncc([C@H](NC(=O)CCC(F)(F)F)C3CC3)cc2n1)C1CCC(F)(F)CC1` (stereo partly drawn) [Example 479, N—((S)-(7-((R)-Cyclopropyl(4,4,4-trifluorobutanamido)methyl)imidazo[1,2-b]pyridazin-2-yl)(4,4-difluorocyclohexyl)methyl)-1-(1,1-difluoropropan-2-yl)-1H-1,2,4-triazole-5-carboxamide], the IC50 stood at 190 nM in experiment [1] and 430 nM in experiment [2].

Turning to `CC(C)c1scnc1C(=O)N[C@H](c1cn2ncc([C@H](NC(=O)CCC(F)(F)F)C3CC3)cc2n1)C1CCC(F)(F)CC1` [Example 480, N—((S)-(7-((R)-Cyclopropyl(4,4,4-trifluorobutanamido)methyl)imidazo[1,2-b]pyridazin-2-yl)(4,4-difluorocyclohexyl)methyl)-5-isopropylthiazole-4-carboxamide], the results for the IC50 in experiment [1] and in experiment [2] were 140 nM and 470 nM, respectively.

For `CC(C)n1ncnc1C(=O)N[C@H](c1cn2ncc([C@H](NC(=O)CCC(F)(F)F)C3CC3)cc2n1)C1CCC(F)(F)CC1` [Example 483, N—[(S)-[7-[(R)-Cyclopropyl-(4,4,4-trifluorobutanamido)methyl]imidazo[1,2-b]pyridazin-2-yl]-(4,4-difluorocyclohexyl)methyl]-2-isopropyl-1,2,4-triazole-3-carboxamide], the IC50 was 75 nM in experiment [1] and 380 nM in experiment [2].

For `CC(C)n1nnc(C(=O)N[C@H](c2cn3ncc([C@H](NC(=O)CCC(F)(F)F)C4CC4)cc3n2)C2CCC(F)(F)CC2)n1` [Example 484, N—[(S)-[7-[(R)-Cyclopropyl-(4,4,4-trifluorobutanamido)methyl]imidazo[1,2-b]pyridazin-2-yl]-(4,4-difluorocyclohexyl)methyl]-2-isopropyl-tetrazole-5-carboxamide], the figures for the IC50 in experiment [1] and in experiment [2] were 550 nM and 4600 nM, respectively.

Take `O=C(CCC(F)(F)F)N[C@@H](c1cnn2cc([C@@H](NC(=O)c3cnn(CCN4CC(F)(F)C4)n3)C3CCC(F)(F)CC3)nc2c1)C1CC1` [Example 485, N—[(S)-[7-[(R)-Cyclopropyl-(4,4,4-trifluorobutanamido)methyl]imidazo[1,2-b]pyridazin-2-yl]-(4,4-difluorocyclohexyl)methyl]-2-[2-(3,3-difluoroazetidin-1-yl)ethyl]triazole-4-carboxamide]: the half-inhibitory concentration (IC50) in experiment [1] stood at 920 nM; in experiment [2], 310 nM.

Take `O=C(CCC(F)(F)F)N[C@@H](c1cnn2cc([C@@H](NC(=O)c3cnn(CCNCC(F)(F)CCl)n3)C3CCC(F)(F)CC3)nc2c1)C1CC1` [Example 486, 2-[2-[(3-Chloro-2,2-difluoro-propyl)amino]ethyl]-N—[(S)-[7-[(R)-cyclopropyl-(4,4,4-trifluorobutanamido)methyl]imidazo[1,2-b]pyridazin-2-yl]-(4,4-difluorocyclohexyl)methyl]triazole-4-carboxamide]: the half-inhibitory concentration (IC50) in experiment [1] was 300 nM; in experiment [2] it was 1100 nM.

These data come from US11702422B2, “Imidazopyridazines as modulators of IL-17” (Janssen Pharmaceutica NV, priority 2020, dated 2023).
